Data from patent US11266662B2, “Ganaxolone for use in prophylaxis and treatment of postpartum depression” (Marinus Pharmaceuticals, Inc., priority 2018, dated 2022).
Several values for one entry are separate records, joined by “and”; a condition that tells them apart may be missing. Equal values may be shown once.

Assays:
[1] = Human pharmacokinetics after oral administration; details: in vivo
[2] = Excretion of radioactivity; details: all species
[3] = tested on: mouse model of posttraumatic stress disorder (PTSD); details: Pinna and Rasmussen, 2014; cited from earlier work
[4] = tested on: children and adolescents with fragile X syndrome; details: in those with higher baseline anxiety; Ligsay et al, 2017; cited from earlier work
[5] = Phase 2A study (Magnolia) in women with postpartum depression: ganaxolone plasma concentrations / pharmacokinetics; details: for GNX Concentration: individual subjects, listed as GNX; for concentration at 12 h / concentration at 24 h / concentration at 48 h / concentration at 24 hr / concentration at 48 hr / concentration at 12 hr: female, human, plasma, intravenous, Mean average GNX Concentration
Experimental: Approximately 200 women with PPD 18 to 45 years of age are screened to randomize up to 100 subjects across up to 6 cohorts. Approximately 10-30 subjects are randomized into each cohort. Randomized subjects receive the investigational product (IP), ganaxolone or matching placebo in a 1:1 ratio. In Cohorts 1-5 the IP is administered intravenously over 60 hours. In Cohort 6 the dosing is initiated with a 6-hour intravenous (IV) infusion followed by oral dosing for 28 days plus 3-day taper.
Ganaxolone is infused at a rate of 4 mg/hr (16 ml/h of ganaxolone 0.25 mg/ml solution) for 48 hours and then, to minimize any risks for withdrawal or rebound of anxiety and depression symptoms, at a rate of 2 mg/hr for the next 12 hours. The infusion is stopped at 60 hours. Total of 9 subjects are dosed for this cohort.
Ganaxolone is infused at a rate of 8 mg/hr (16 ml/h of ganaxolone 0.5 mg/ml solution) for 48 hours and then at a rate of 4 mg/hr for the next 12 hours. This dose is approximately double the expected plasma exposure as compared to Cohort 1 at steady state (Cohort 2 expected plasma concentration ˜100-120 ng/mL). The infusion is stopped at 60 hours.
Twelve mg bolus of ganaxolone is initially given over 2 minutes followed by ganaxolone infusion at a rate of 12 mg/hr (24 ml/h of ganaxolone 0.5 mg/ml solution) for 48 hours. The rate is then reduced to 6 mg/hr for the next 12 hours, which is done to minimize any risks for withdrawal or rebound of anxiety and depression symptoms. The infusion is stopped at 60 hours.
In this cohort dosing is initiated with ganaxolone infusion at a rate of 20 mg/hr (40 ml/h of ganaxolone 0.5 mg/ml solution or matching placebo) for 6 hours followed by ganaxolone 900 mg (four 225 mg capsules per dose) or matching placebo capsules given orally at dinner time for 28 days followed by a 3-day taper (three, two, and one 225 mg capsule(s) per day, respectively).
This initial infusion is targeted to provide a fast onset of antidepressant activity by delivery of rapid plasma exposures to ganaxolone. Then, at dinner time of Day 1 the subjects take their first oral dose of ganaxolone 900 mg (four 225 mg capsules) or matching placebo (4 capsules). […] In previous studies, ganaxolone has been given up to a daily dose of 2000 mg, and at single doses of 1000 mg.
Six samples are collected for pharmacokinetic analysis in Cohorts 1-5 and 12 samples in Cohort 6. […] Seven samples are collected during the inpatient phase of Cohort 6 (including 6 samples on Day 1) followed by collection of 5 samples during the outpatient phase during the study visits for a total of 12 samples in Cohort 6.

## CC(=O)[C@H]1CC[C@H]2[C@@H]3CC[C@H]4C[C@](C)(O)CC[C@]4(C)[C@H]3CC[C@]12C [ganaxolone, 3α-hydroxy-3β-methyl-5α-pregnan-20-one]
[1]
  Cmax: 200 to 300 ng/mL
[2]
  Excreted radioactivity via faeces: > 70%
[3]
  Aggression and social isolation-induced anxiety-like behaviour: decreased aggression and social isolation-induced anxiety-like behaviour
[4]
  Anxiety, hyperactivity and attention: reduced anxiety and hyperactivity and improved attention
[5]; Cohort 1, infusion rate 4 mg/hr, estimated target
  Targeted ganaxolone plasma concentration at steady state (Css): 52 ng/mL
[5]; Cohort 1: IV 4 mg/hr for 48 h then 2 mg/hr for 12 h, time 12 hr
  GNX Concentration: 61.6 ng/mL
[5]; Cohort 1: IV 4 mg/hr for 48 h then 2 mg/hr for 12 h, time 24 hr
  GNX Concentration: 59 ng/mL
[5]; Cohort 2, 8 mg/hr
  Expected plasma concentration at steady state: 100 to 120 ng/mL
[5]; Cohort 2: IV 8 mg/hr for 48 h then 4 mg/hr for 12 h, time 12 hr
  GNX Concentration: 107 ng/mL (2×) and 70.8 ng/mL and 111 ng/mL and 150 ng/mL and 115 ng/mL and 63.3 ng/mL and 69.3 ng/mL and 116 ng/mL and 49.5 ng/mL and 146 ng/mL and 183 ng/mL and 140 ng/mL and 71.5 ng/mL and 77.6 ng/mL
[5]; Cohort 2: IV 8 mg/hr for 48 h then 4 mg/hr for 12 h, time 24 hr
  GNX Concentration: 125 ng/mL and 92 ng/mL and 140 ng/mL and 45.5 ng/mL and 75.7 ng/mL and 106 ng/mL and 96.5 ng/mL and 1590* ng/mL and 142 ng/mL and 80.6 ng/mL and 175 ng/mL and 174 ng/mL and 162 ng/mL and 89.3 ng/mL and 26100* ng/mL
[5]; Cohort 2: IV 8 mg/hr for 48 h then 4 mg/hr for 12 h, time 48 hr
  GNX Concentration: 120 ng/mL (2×) and 136 ng/mL and 102 ng/mL and 197 ng/mL and 92 ng/mL and 77.8 ng/mL and 73.9 ng/mL and 118 ng/mL and 73.1 ng/mL and 131 ng/mL and 298 ng/mL and 132 ng/mL and 93.6 ng/mL and 7390* ng/mL
[5]; Cohort 2: IV 8 mg/hr for 48 h then 4 mg/hr for 12 h, time 72 hr
  GNX Concentration: 27.1 ng/mL and 26.4 ng/mL and 30.1 ng/mL and 28.2 ng/mL and 11.9 ng/mL and 23.9 ng/mL and 23.1 ng/mL and 26.8 ng/mL and 25.6 ng/mL and 19.4 ng/mL and 46.2 ng/mL and 26.9 ng/mL and 21.5 ng/mL and 18.1 ng/mL and 27.5 ng/mL
[5]; Cohort 3, 12 mg bolus over 2 minutes
  Expected peak plasma concentrations during initial 2-minute bolus: up to 300 ng/ml
[5]; Cohort 3: 12 mg bolus, IV 12 mg/hr for 48 h then 6 mg/hr for 12 h, time 12 hr
  GNX Concentration: 137 ng/mL and 100 ng/mL and 106 ng/mL and 118 ng/mL and 138 ng/mL and 230 ng/mL and 126 ng/mL and 204 ng/mL and 61.1 ng/mL
[5]; Cohort 3: 12 mg bolus, IV 12 mg/hr for 48 h then 6 mg/hr for 12 h, time 24 hr
  GNX Concentration: 164 ng/mL and 125 ng/mL and 148 ng/mL and 163 ng/mL and 165 ng/mL and 254 ng/mL and 144 ng/mL and 250 ng/mL and 56 ng/mL and 16 ng/mL
[5]; Cohort 3: 12 mg bolus, IV 12 mg/hr for 48 h then 6 mg/hr for 12 h, time 48 hr
  GNX Concentration: 207 ng/mL and 146 ng/mL and 212 ng/mL and 66.4 ng/mL and 211 ng/mL and 213 ng/mL and 4160* ng/mL and 209 ng/mL and 85 ng/mL
[5]; Cohort 3: 12 mg bolus, IV 12 mg/hr for 48 h then 6 mg/hr for 12 h, time 72 hr
  GNX Concentration: 49.3 ng/mL and 26.1 ng/mL and 30 ng/mL and 46.2 ng/mL and 44.6 ng/mL and 42.8 ng/mL and 30.2 ng/mL and 31.7 ng/mL and 17.5 ng/mL and 15.2 ng/mL
[5]; 86 μg/kg/hr, calculated for dose 86 μg/kg/hr, time 12 hr
  concentration at 12 h: 81.4 ng/mL
[5]; 86 μg/kg/hr, calculated for dose 86 μg/kg/hr, time 24 hr
  concentration at 24 h: 91.2 ng/mL
[5]; 86 μg/kg/hr, calculated for dose 86 μg/kg/hr, time 48 hr
  concentration at 48 h: 100 ng/mL
[5]; 150 μg/kg/hr, calculated for dose 150 μg/kg/hr, time 12 hr
  concentration at 12 h: 142 ng/mL
[5]; 150 μg/kg/hr, calculated for dose 150 μg/kg/hr, time 24 hr
  concentration at 24 hr: 159 ng/mL
[5]; 150 μg/kg/hr, calculated for dose 150 μg/kg/hr, time 48 hr
  concentration at 48 hr: 175 ng/mL
[5]; 160 μg/kg/hr, calculated for dose 160 μg/kg/hr, time 12 hr
  concentration at 12 hr: 151 ng/mL
[5]; 160 μg/kg/hr, calculated for dose 160 μg/kg/hr, time 24 hr
  concentration at 24 hr: 170 ng/mL
[5]; 160 μg/kg/hr, calculated for dose 160 μg/kg/hr, time 48 hr
  concentration at 48 hr: 187 ng/mL
[5]; 170 μg/kg/hr, calculated for dose 170 μg/kg/hr, time 12 hr
  concentration at 12 hr: 161 ng/mL
[5]; 170 μg/kg/hr, calculated for dose 170 μg/kg/hr, time 24 hr
  concentration at 24 hr: 180 ng/mL
[5]; 170 μg/kg/hr, calculated for dose 170 μg/kg/hr, time 48 hr
  concentration at 48 hr: 199 ng/mL
[5]; 180 μg/kg/hr, calculated for dose 180 μg/kg/hr, time 12 hr
  concentration at 12 h: 170 ng/mL
[5]; 180 μg/kg/hr, calculated for dose 180 μg/kg/hr, time 24 hr
  concentration at 24 h: 191 ng/mL
[5]; 180 μg/kg/hr, calculated for dose 180 μg/kg/hr, time 48 hr
  concentration at 48 h: 210 ng/mL
[5]; 190 μg/kg/hr, calculated for dose 190 μg/kg/hr, time 12 hr
  concentration at 12 h: 180 ng/mL
[5]; 190 μg/kg/hr, calculated for dose 190 μg/kg/hr, time 24 hr
  concentration at 24 h: 202 ng/mL
[5]; 190 μg/kg/hr, calculated for dose 190 μg/kg/hr, time 48 hr
  concentration at 48 h: 222 ng/mL
[5]; 200 μg/kg/hr, calculated for dose 200 μg/kg/hr, time 12 hr
  concentration at 12 h: 189 ng/mL
[5]; 200 μg/kg/hr, calculated for dose 200 μg/kg/hr, time 24 hr
  concentration at 24 h: 212 ng/mL
[5]; 200 μg/kg/hr, calculated for dose 200 μg/kg/hr, time 48 hr
  concentration at 48 h: 234 ng/mL
[5]; 210 μg/kg/hr, calculated for dose 210 μg/kg/hr, time 12 hr
  concentration at 12 h: 199 ng/mL
[5]; 210 μg/kg/hr, calculated for dose 210 μg/kg/hr, time 24 hr
  concentration at 24 h: 223 ng/mL
[5]; 210 μg/kg/hr, calculated for dose 210 μg/kg/hr, time 48 hr
  concentration at 48 h: 246 ng/mL
[5]; 220 μg/kg/hr, calculated for dose 220 μg/kg/hr, time 12 hr
  concentration at 12 h: 208 ng/mL
[5]; 220 μg/kg/hr, calculated for dose 220 μg/kg/hr, time 24 hr
  concentration at 24 h: 233 ng/mL
[5]; 220 μg/kg/hr, calculated for dose 220 μg/kg/hr, time 48 hr
  concentration at 48 h: 257 ng/mL
[5]; 260 μg/kg/hr, calculated for dose 260 μg/kg/hr, time 12 hr
  concentration at 12 h: 246 ng/mL
[5]; 260 μg/kg/hr, calculated for dose 260 μg/kg/hr, time 24 hr
  concentration at 24 h: 276 ng/mL
[5]; 260 μg/kg/hr, calculated for dose 260 μg/kg/hr, time 48 hr
  concentration at 48 h: 304 ng/mL
